Measured values taken from US10689362B2, “Quinoxaline compounds as type III receptor tyrosine kinase inhibitors” (Development Center for Biotechnology, priority 2016, dated 2020).

What was measured:
Type in all cases: biochemical
[1] = molecular target: c-KIT kinase (Homo sapiens (Human), UniProt P10721); test: c-KIT kinase assay (radiometric)
Procedure: (§1) Inhibition of c-KIT kinase activity by a test compound disclosed herein was estimated by radiometric assay. Standard assay conditions were 20 ng of recombinant c-Kit (SignalChem) with 2 μg of substrate Poly-(Glu 4:Tyr 1) (sigma) in the assay buffer in kinase reaction buffer (10 mM MOPS pH 7.0, 0.21 mM EDTA, 0.5% glycerol, 0.001% Brij-35, 0.01 2-mercaptoehtanol, 1 mg/ml BSA, 10 mM MgCl2, 10 mM MnCl2, 10 μM ATP, 0.1 μCi per well [^33P]-ATP, in the presence of test compound (diluted in final concentration of 4% DMSO) or DMSO control, with a final volume of 25 μl for 60 minutes at 30° C. The reaction was stopped by adding 5 μl of 3% phosphoric acid solution. Total reaction solution was then harvested onto a filter plate (UniFilter-96 GF/B, PerkinElmer), and washed 20 times for 5 min with dH2O. 30 μl of MicroScint™-20 Cocktail (PerkinElmer) was added to dried plate. The plate was sealed and counted using a TopCount scintillation detector (PerkinElmer). […] The IC50 values of quinoxaline compounds of this invention against c-KIT kinase were determined using the GraphPad Prism 5 software.
(§2) The IC50 values for selected quinoxaline compounds of this invention against CSF-1R, c-KIT, FLT3, and PDGFRβ are summarized in Table 3.

[2] = molecular target: FLT3 kinase (Homo sapiens (Human), UniProt P36888); test: FLT3 kinase assay (radiometric); details: bound
Procedure: as §1, with “of FLT3” for “of c-KIT”, “were 5” for “were 20”, “recombinant FLT3 (Thermo Fisher)” for “recombinant c-Kit (SignalChem)”, “BSA, MgCl2” for “BSA,”, “10 mM,” for “10 mM MgCl2, 10 mM MnCl2,”, “against FLT3” for “against c-KIT”
as §2

[3] = molecular target: PDGFRβ kinase (Homo sapiens (Human), UniProt P09619); test: PDGFRβ kinase assay (radiometric); details: bound
Procedure: as §1, with “of PDGFRβ” for “of c-KIT”, “were 10” for “were 20”, “recombinant PDGFRβ” for “recombinant c-Kit”, “well [^33P]-ATP),” for “well [^33P]-ATP,”, “against PDGFRβ” for “against c-KIT”
as §2

Chain of FLT3 kinase (P36888 27-993): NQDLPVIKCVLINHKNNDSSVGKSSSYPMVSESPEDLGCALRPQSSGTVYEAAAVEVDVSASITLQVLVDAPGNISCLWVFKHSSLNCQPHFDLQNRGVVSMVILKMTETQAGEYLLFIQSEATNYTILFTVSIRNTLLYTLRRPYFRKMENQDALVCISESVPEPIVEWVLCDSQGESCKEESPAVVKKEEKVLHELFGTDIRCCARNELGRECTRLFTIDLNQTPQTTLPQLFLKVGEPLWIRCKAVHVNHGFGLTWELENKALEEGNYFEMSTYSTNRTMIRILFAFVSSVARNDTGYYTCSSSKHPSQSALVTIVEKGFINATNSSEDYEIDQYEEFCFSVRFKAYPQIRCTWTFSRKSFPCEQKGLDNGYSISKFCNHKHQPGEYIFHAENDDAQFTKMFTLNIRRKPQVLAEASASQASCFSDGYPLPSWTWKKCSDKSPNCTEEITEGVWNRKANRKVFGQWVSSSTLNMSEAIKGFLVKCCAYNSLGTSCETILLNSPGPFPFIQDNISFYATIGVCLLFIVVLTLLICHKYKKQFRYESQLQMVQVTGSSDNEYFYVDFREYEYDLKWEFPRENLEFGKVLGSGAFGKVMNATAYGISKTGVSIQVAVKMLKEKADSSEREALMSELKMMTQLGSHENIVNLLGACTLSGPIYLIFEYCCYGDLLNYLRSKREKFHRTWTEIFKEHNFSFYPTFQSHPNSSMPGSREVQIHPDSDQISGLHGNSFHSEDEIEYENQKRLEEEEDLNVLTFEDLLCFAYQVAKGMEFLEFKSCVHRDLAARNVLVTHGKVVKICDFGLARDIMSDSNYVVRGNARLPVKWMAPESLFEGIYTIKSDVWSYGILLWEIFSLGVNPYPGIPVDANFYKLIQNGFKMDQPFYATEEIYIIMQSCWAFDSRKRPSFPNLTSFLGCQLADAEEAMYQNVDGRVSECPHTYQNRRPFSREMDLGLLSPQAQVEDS
Chain of PDGFRβ kinase (P09619 33-1106): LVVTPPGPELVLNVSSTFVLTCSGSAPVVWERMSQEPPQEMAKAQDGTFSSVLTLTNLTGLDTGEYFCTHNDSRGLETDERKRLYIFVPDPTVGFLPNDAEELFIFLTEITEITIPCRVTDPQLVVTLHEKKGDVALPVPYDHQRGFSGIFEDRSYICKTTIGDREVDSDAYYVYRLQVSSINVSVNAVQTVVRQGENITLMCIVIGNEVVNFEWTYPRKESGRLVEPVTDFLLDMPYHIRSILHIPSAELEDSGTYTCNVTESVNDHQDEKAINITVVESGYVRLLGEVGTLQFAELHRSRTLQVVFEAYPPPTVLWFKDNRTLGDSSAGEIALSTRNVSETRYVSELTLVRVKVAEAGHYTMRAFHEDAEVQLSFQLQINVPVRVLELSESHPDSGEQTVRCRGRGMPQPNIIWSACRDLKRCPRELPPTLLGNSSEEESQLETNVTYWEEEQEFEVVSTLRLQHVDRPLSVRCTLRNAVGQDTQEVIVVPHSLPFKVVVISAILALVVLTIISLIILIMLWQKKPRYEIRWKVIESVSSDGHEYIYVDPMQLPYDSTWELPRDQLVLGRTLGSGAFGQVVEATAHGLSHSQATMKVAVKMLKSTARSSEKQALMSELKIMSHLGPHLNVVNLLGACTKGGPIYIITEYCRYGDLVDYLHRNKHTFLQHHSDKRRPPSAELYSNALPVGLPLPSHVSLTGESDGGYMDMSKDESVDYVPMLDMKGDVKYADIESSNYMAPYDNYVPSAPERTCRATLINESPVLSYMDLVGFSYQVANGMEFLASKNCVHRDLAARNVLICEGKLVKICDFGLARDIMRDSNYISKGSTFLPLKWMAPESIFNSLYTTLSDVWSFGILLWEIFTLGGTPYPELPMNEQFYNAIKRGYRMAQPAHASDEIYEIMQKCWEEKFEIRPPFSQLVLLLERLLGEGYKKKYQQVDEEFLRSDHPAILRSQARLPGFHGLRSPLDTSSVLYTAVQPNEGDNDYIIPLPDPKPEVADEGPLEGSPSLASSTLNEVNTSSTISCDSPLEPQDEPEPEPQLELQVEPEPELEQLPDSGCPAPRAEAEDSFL
Chain of c-KIT kinase (P10721 26-976): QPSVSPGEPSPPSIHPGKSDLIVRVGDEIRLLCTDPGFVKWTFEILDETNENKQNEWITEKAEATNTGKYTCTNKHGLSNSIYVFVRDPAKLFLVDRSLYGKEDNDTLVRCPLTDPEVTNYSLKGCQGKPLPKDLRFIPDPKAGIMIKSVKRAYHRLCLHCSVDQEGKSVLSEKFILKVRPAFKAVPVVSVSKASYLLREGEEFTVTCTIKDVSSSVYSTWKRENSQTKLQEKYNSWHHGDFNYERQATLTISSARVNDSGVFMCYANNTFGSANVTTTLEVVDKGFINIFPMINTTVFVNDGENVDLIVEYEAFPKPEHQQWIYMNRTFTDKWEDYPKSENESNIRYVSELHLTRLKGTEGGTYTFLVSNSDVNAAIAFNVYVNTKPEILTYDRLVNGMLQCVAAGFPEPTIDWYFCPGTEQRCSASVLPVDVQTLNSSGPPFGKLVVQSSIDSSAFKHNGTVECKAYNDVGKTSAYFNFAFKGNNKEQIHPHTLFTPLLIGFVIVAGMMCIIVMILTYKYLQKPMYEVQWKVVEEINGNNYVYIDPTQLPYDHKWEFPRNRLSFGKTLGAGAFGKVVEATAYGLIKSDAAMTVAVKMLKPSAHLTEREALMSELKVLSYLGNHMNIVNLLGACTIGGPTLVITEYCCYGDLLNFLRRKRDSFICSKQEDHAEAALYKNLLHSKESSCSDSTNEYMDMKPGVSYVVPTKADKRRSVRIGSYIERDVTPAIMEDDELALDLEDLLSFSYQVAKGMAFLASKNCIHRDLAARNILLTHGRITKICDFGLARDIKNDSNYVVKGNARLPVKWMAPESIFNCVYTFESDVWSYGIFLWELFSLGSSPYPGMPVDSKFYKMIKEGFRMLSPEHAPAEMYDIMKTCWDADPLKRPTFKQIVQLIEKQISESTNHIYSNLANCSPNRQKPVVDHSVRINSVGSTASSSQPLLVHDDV

Row | SMILES | IC50 ([1]; class symbol) | IC50 [2] | IC50 [3] | IC50 ([1]; bound)
1 | COc1cc(Nc2ccc3ncc(N4CCOCC4)nc3c2C#N)ccc1OCc1cnn(C2CC2)c1 [Example 134, 6-((4-((1-cyclopropyl-1H-pyrazol-4-yl)methoxy)-3-methoxy-phenyl)amino)-3-morpholinoquinoxaline-5-carbonitrile] | < 0.1 µM | > 1 µM | > 1 µM | 
2 | COc1cc(Nc2ccc3ncc(N4CCOCC4)nc3c2C#N)ccc1OCc1cccnc1 [Example 43, 6-((3-methoxy-4-(pyridin-3-ylmethoxy)phenyl)amino)-3-morpholinoquinoxaline-5-carbonitrile] | < 0.1 µM | > 1 µM | > 1 µM | 
3 | COc1ccc(COc2ccc(Oc3ccc4ncc(OC)nc4c3C#N)cc2OC)cc1 [Example 10, 3-methoxy-6-(3-methoxy-4-((4-methoxpenzyl)oxy)phenoxy)quinoxaline-5-carbonitrile] |  |  | > 1 µM | 

The remaining lines, values ahead:

Row | IC50 ([1]; class symbol) | IC50 [2] | IC50 [3] | IC50 ([1]; bound) | SMILES
4 | < 0.1 µM | > 1 µM | > 1 µM |  | COc1cc(Nc2ccc3ncc(N4CCOCC4)nc3c2C#N)ccc1OCc1ccc(C)nc1 [Example 54, 6-((3-methoxy-4-((6-methylpyridin-3-yl)methoxy)phenyl)amino)-3-morpholinoquinoxaline-5-carbonitrile]
5 |  | > 1 µM | > 1 µM | > 1 µM | CCOc1cc(Oc2ccc3ncc(OC)nc3c2C#N)ccc1OCc1ccc(OC)cc1 [Example 30, 6-(3-ethoxy-4-((4-methoxybenzyl)oxy)phenoxy)-3-methoxyquinoxaline-5-carbonitrile]
6 |  | > 1 µM | > 1 µM | > 1 µM | COc1ccc(COc2ccc(Oc3ccc4ncc(OC)nc4c3C#N)cc2OC)cc1 [Example 26, 3-methoxy-6-(3-methoxy-4-((4-methoxybenzyl)oxy)phenoxy)quinoxaline-5-carbonitrile]
7 | 0.3 to 1 µM | > 1 µM | > 1 µM |  | COc1cc(Nc2ccc3ncc(N4CCOCC4)nc3c2C#N)ccc1OCc1cnc(C)nc1 [Example 128, 6-((3-methoxy-4-((2-methylpyrimidin-5-yl)methoxy)phenyl)amino)-3-morpholinoquinoxaline-5-carbonitrile]
